In brackets after ≈: the same amount, converted by molar mass.
How the values were obtained:
[1] = system: Pseudomonas aeruginosa PI-67; assay: Protective effects on bacterial infections in mice (Pseudomonas aeruginosa PI-67); assay type: in vivo; conditions: PI67, im, 168 h, intraperitoneal challenge, compound intramuscularly one hour after infection, survival 7 days after infection, probit analysis, read-out: ED50 (median effective dose)
Experimental: (§1) (Protective effects on bacterial infections in mice) Ten mice weighing 20±1 g were used for each dose level. Mice were challenged via the intraperitoneal route with sufficient bacteria to kill all non-treated mice within 24 hours. All bacteria were suspended in a physiological saline solution containing 6% mucin. A test compound was administered intramuscularly one hour after the infection. Survival ratios were determined 7 days after the infection. The median effective doses (ED50, mg/kg) of the test compound were estimated by the probit analysis.

[2] = system: Staphylococcus aureus Smith; assay: Antimicrobial activity in vitro (MIC, standard agar plate dilution method); assay type: cell-based; conditions: Mueller-Hinton agar, read-out: M.I.C. (minimum inhibitory concentration)
Experimental: (§2) (Antimicrobial activity in vitro)
(§3) The minimum inhibitory concentration (MIC, μg/ml) of a test compound was determined by means of a standard agar plate dilution method (based on the standard method of Japan Society of Chemotherapy). Media used in the experiment were Mueller-Hinton agar (MHA; product of Nissui).

[3] = system: Pseudomonas aeruginosa PI-67; assay: as above; assay type: cell-based; conditions: PI67, Mueller-Hinton agar, read-out: M.I.C. (minimum inhibitory concentration)
Experimental: as §2, §3

[4] = system: Staphylococcus aureus Smith; assay: Protective effects on bacterial infections in mice (Staphylococcus aureus Smith); assay type: in vivo; conditions: im, 168 h, intraperitoneal challenge, compound intramuscularly one hour after infection, survival 7 days after infection, probit analysis, read-out: ED50 (median effective dose)
Experimental: as §1

Structure (SMILES) | ED50 [1] [mg/kg] | MIC [2] [µg/mL] | MIC [3] [µg/mL] | ED50 [4] [mg/kg]
C[n+]1ccc(SCC2=C(C(=O)[O-])N3C(=O)C(NC(=O)/C(=N\O[C@H]4CCNC4=O)c4csc(N)n4)C3SC2)cc1 (stereo partly drawn) [Test Compound 1, 7β-{(Z)-2-(2-aminothiazol-4-yl)-2-[((3S)-2-oxopyrrolidin-3-yl)oxyimino]acetamido}-3-(1-methyl-4-pyridinio)thiomethyl-3-cephem-4-carboxylate] | 12.3 | 0.78 (≈ 1.32 µM) | 0.78 (≈ 1.32 µM) | 0.14
C=CC[n+]1ccccc1SCC1=C(C(=O)[O-])N2C(=O)C(NC(=O)/C(=N\O[C@H]3CCNC3=O)c3csc(N)n3)C2SC1 (stereo partly drawn) [Test Compound 3, 7β-{(Z)-2-(2-aminothiazol-4-yl)-2-[((3S)-2-oxopyrrolidin-3-yl)oxyimino]acetamido}-3-(1-allyl-2-pyridinio)thiomethyl-3-cephem-4-carboxylate] | 10.8 | 1.56 (≈ 2.53 µM) | 3.13 (≈ 5.08 µM) | 0.4
C[n+]1ccccc1SCC1=C(C(=O)[O-])N2C(=O)C(NC(=O)/C(=N\O[C@H]3CCNC3=O)c3csc(N)n3)C2SC1 (stereo partly drawn) [Test Compound 2, 7β-{(Z)-2-(2-aminothiazol-4-yl)-2-[((3S)-2-oxopyrrolidin-3-yl)oxyimino]acetamido}-3-(1-methyl-2-pyridinio)thiomethyl-3-cephem-4-carboxylate] | 15.8 | 0.78 (≈ 1.32 µM) | 1.56 (≈ 2.65 µM) | 0.25

Reference: patent US4786633A, “Cephalosporin compounds” (Tanabe Seiyaku Co., Ltd., priority 1986, dated 1988)
